Among the data in ChEMBL document CHEMBL3046596, “Antinociceptive activities of some triazole and pyrazoline moieties-bearing compounds” (Med Chem Res, 2012) are Activity, inhibition in vivo and MPE values, retold here.

Data set [1] relates to Mus musculus. Nature of the data set: Toxicity in Mus musculus Swiss albino (mouse) assessed as vertical locomotor activity at 100 mg/kg, ip. Format: organism-based. Further details: dose 100 mg/kg, route intraperitoneal. Conditions: in vivo.
Data set [2] concerns Mus musculus. Description: Antinociceptive activity against formalin-induced pain in Mus musculus Swiss albino (mouse) assessed as inhibition of licking during first phase (0 to 5 min) at 100 mg/kg, ip administered 30 min before experimental session. Format: functional. Conditions: route intraperitoneal.
In data set [3] the test system is Mus musculus. Nature of the data set: Antinociceptive activity against formalin-induced pain in Mus musculus Swiss albino (mouse) assessed as inhibition of licking during second phase (15 to 30 min) at 100 mg/kg, ip administered 30 min before experimental session. It is filed as functional. Particulars: route intraperitoneal.
Data set [4] has as its system Mus musculus. Description: Toxicity in Mus musculus Swiss albino (mouse) assessed as mortality at 100 mg/kg, ip. It is filed as organism-based. The arrangement: dose 100 mg/kg, route intraperitoneal. Conditions: in vivo.
For data set [5], the system named is Mus musculus. Description: Antinociceptive activity in Mus musculus Swiss albino (mouse) assessed as increase in reaction (paw licking and jumping) latency to thermal stimulus at 100 mg/kg, ip administered 30 min before experimental session by hot plate test. Particulars: route intraperitoneal. It is filed as functional. In general terms: Thermal pain tests record how soon the animal reacts.

The test system of data set [6] is Mus musculus. Description: Toxicity in Mus musculus Swiss albino (mouse) assessed as horizontal locomotor activity at 100 mg/kg, ip. Particulars: in vivo. The arrangement: dose 100 mg/kg, route intraperitoneal. It is filed as organism-based.
Data set [7] relates to Mus musculus. Description: Antinociceptive activity in Mus musculus Swiss albino (mouse) assessed as prolongation of reaction latency to mechanical stimuli at 100 mg/kg, ip administered 30 min before experimental session by tail-clip test. It is filed as functional. Particulars: route intraperitoneal.
In data set [8] the test system is Mus musculus. Nature of the data set: Antinociceptive activity in Mus musculus Swiss albino (mouse) assessed as prolongation of reaction latency to mechanical stimuli at 10 mg/kg, ip administered 30 min before experimental session by tail-clip test. It is filed as functional. Conditions: route intraperitoneal.
The species named for data set [9] is Mus musculus. Nature of the data set: animal or person. Particulars: Swiss albino, ip, read-out: INH.
Description: Antinociceptive activity against formalin-induced pain in Mus musculus Swiss albino (mouse) assessed as inhibition of licking during second phase (15 to 30 min) at 10 mg/kg, ip administered 30 min before experimental session
Data set [10] relates to Mus musculus. Nature of the data set: Antinociceptive activity in Mus musculus Swiss albino (mouse) assessed as increase in reaction (paw licking and jumping) latency to thermal stimulus at 10 mg/kg, ip administered 30 min before experimental session by hot plate test. It is filed as functional. Conditions: route intraperitoneal.
For data set [11], the species on record is Mus musculus. Nature of the data set: animal or person. Conditions: Swiss albino, ip, read-out: INH. This is another data set of the same source.
Description: Antinociceptive activity against formalin-induced pain in Mus musculus Swiss albino (mouse) assessed as inhibition of licking during first phase (0 to 5 min) at 10 mg/kg, ip administered 30 min before experimental session

Regarding `Nn1c(CCc2ccc(O)cc2)nnc1SCC(=O)N1N=C(c2cccs2)CC1c1ccccc1` (stereo unspecified), the Activity entry with Mus musculus [1] is recorded as “Non-toxic”; in the data set with Mus musculus [4] it was “Non-toxic”; with Mus musculus [5], 79.4%; in the data set with Mus musculus [6], “Non-toxic”. Also, the inhibition in vivo at 100 mg/kg with Mus musculus [2] turned out to be 66.6%; in the data set with Mus musculus [3], 79.2%. In addition, the MPE in the data set with Mus musculus [7] stood at 80.2%.
With `CN1CC[C@]23c4c5ccc(O)c4O[C@H]2[C@@H](O)C=C[C@H]3[C@H]1C5` [MORPHINE], the MPE with Mus musculus [8] is 88.1%. The inhibition in vivo at 10 mg/kg in the data set filed under Mus musculus [9] and in the data set filed under Mus musculus [11] was 100% in each case. In the data set on Mus musculus [10], the Activity was determined as 92.5%.
On to `Nn1c(CCc2ccc(O)cc2)nnc1SCC(=O)N1N=C(c2cccs2)CC1c1ccc(F)cc1` (stereo unspecified), for which the Activity result in the data set with Mus musculus [1] was “Non-toxic”; in the data set with Mus musculus [4] it was “Non-toxic”; with Mus musculus [5] it was 89%; in the data set with Mus musculus [6], “Non-toxic”. Besides, the inhibition in vivo at 100 mg/kg in the data set on Mus musculus [2] stood at 73.7%; with Mus musculus [3], 78.3%. Also, in the data set on Mus musculus [7], the MPE is given as 85%.
As for `Nn1c(CCc2ccc(O)cc2)nnc1SCC(=O)N1N=C(c2cccs2)CC1c1ccc(Cl)cc1` (stereo unspecified), the Activity result is given as “Non-toxic” in the data set on Mus musculus [1], “Non-toxic” in the data set on Mus musculus [4], 81.6% with Mus musculus [5] and “Non-toxic” with Mus musculus [6]. The inhibition in vivo at 100 mg/kg in the data set with Mus musculus [2] was found to be 68.7%; with Mus musculus [3] it was 72.1%. For the same compound, the MPE in the data set with Mus musculus [7] came to 75.3%.
For the compound `Nn1c(CCc2ccc(O)cc2)nnc1SCC(=O)N1N=C(c2cccs2)CC1c1ccc2c(c1)OCO2` (stereo unspecified), the Activity entry in the data set on Mus musculus [1] is recorded as “Non-toxic”; in the data set on Mus musculus [4], “Non-toxic”; with Mus musculus [5], 45.1%; in the data set on Mus musculus [6], “Non-toxic”. Further, the inhibition in vivo at 100 mg/kg in the data set with Mus musculus [2] was 32%; in the data set with Mus musculus [3], 37.3%. Moreover, the MPE with Mus musculus [7] is 36.2%.
With `Cc1ccc(C2CC(c3cccs3)=NN2C(=O)CSc2nnc(CCc3ccc(O)cc3)n2N)cc1` (stereo unspecified), the Activity entry in the data set on Mus musculus [1] is on record as “Non-toxic”; in the data set with Mus musculus [4], “Non-toxic”; with Mus musculus [5] it was 50.3%; in the data set on Mus musculus [6], “Non-toxic”. The inhibition in vivo at 100 mg/kg in the data set with Mus musculus [2] is 35.4%; in the data set with Mus musculus [3], 42.5%. Further, in the data set on Mus musculus [7], the MPE is 53.5%.
With `CN(C)c1ccc(C2CC(c3cccs3)=NN2C(=O)CSc2nnc(CCc3ccc(O)cc3)n2N)cc1` (stereo unspecified), the Activity entry is listed as “Non-toxic” in the data set on Mus musculus [1], “Non-toxic” with Mus musculus [4], 38.5% with Mus musculus [5] and “Non-toxic” in the data set on Mus musculus [6]. Further, the inhibition in vivo at 100 mg/kg in the data set with Mus musculus [2] was determined as 31.3%; in the data set with Mus musculus [3] it was 38.9%. In the data set on Mus musculus [7], the MPE is 36.5%.
